Measured values taken from EP3299021A1 (priority 2016, dated 2018).
Read-outs that look alike come from different tables or passages of the source.

How the values were obtained:
[1] = test system: liver; details: 1 h ischemia and 1 h reperfusion, all STS doses (Fig. 4b)
Protocol: To implement the ex vivo IRI model, the liver was perfused via the portal vein with oxygenated Krebs-Henseleit buffer for 5 min one-way and 5 min in reverse. Afterwards, the pump was stopped for 1 h followed by 1 h reperfusion. During reperfusion, tissue samples were collected every 10 min.
The method is based on the reaction of GSH with 5,5'-dithiobis(2-nitrobenzoic acid) (DTNB), whereby 2-nitro-5-mercaptobenzoic acid is cleaved, which then leads to a color change. The frozen liver samples were homogenised in a 0.2 M sodium phosphate buffer (pH 8), containing 0.005 M EDTA, and four volumes of 25 % metaphosphoric acid. Subsequently, the samples were centrifuged at 9000 x rcf for 30 min at 4 °C. The absorbance was read at 412 nm using a Spekol 1100 (Carl Zeiss GmbH, Jena, Germany). A standard curve was performed with GSH.
In addition, the GSSG concentration was assessed fluorometrically (fluorescencespectrophotometer F-2000, Hitachi, Tokio, Japan). […] The fluorescence intensity is proportional to the GSSG concentration. […]
Therefore, a monovascular perfusion of the liver through the portal vein (anterograde perfusion) was carried out. […] During the whole experiment, the pressure within the liver was monitored via a pressure transducer (Biopac®Systems Inc, MP150, CA, USA) to control the physiological pressure of the liver. […]

[2] = test system: hepatic IRI; details: medium dose 0.045 g STS/kg BW into tail vein
Protocol: Intravital microscopy has been used to analyse the early reperfusion injury in WT and Cse^-/- mice. Assay of plasma parameters and histological staining was applied to analyse later IRI. Rhodamine 123 was injected into the tail vein 5 min before the onset of the experiment. […] The mice were monitored for 2 h without IRI in the sham control group.
In all experiments male WT and Cse^-/- mice between 10 and 12 weeks were used for a standardised hepatic IRI model. One week before the experiments started, 100 µl blood was taken from the orbital sinus. Body temperature was maintained with a heating plate. During the actual experiment, ischemia was induced in the left lateral lobe of the liver by clamping the hepatic artery and the portal vein using a microaneurysm clamp (FST, Heidelberg, Germany). This procedure results in a segmental (30 %) ischemia. […]
IVM was conducted to monitor the mitochondrial membrane potential in vivo with confocal laser scanning microscopy. Therefore, the animals remained under deep general anesthesia using isoflurane and pain reflexes were assessed to gauge the depth of anesthesia. […] Rhodamine 123 was excited at 488 nm (Argon/2 laser) and the emitted light was detected by a monochromatic filter at 530 ± 30 nm (GaAsP detector). […] The standard deviation of the Rhodamine 123 fluorescence signal was calculated to quantify the changes of the mitochondrial granularity over time. […]

[3] = test system: mitochondrial respiration chain; format: biochemical, mouse
Protocol: The mitochondrial integrity and function was analysed by measuring the oxygen consumption of the different complexes in the mitochondrial respiration chain. Therefore, the isolation and oxygen consumption of the mitochondria were based on the protocol of Frezza et al. (Organelle isolation: functional mitochondria from mouse liver, muscle and cultured fibroblasts. Nat Protoc, 2 (2): 287-295, 2007.) with some modifications. All chemicals and kits were supplied by Sigma Aldrich, Germany.
The oxygen consumption was measured by a microcathode oxygen electrode (S1782, Strathkelvin Instruments, Great Britain). The electrodes were calibrated according to the manufacturer's protocol. Mitochondria (1 mg protein) were suspended in 1 ml experimental buffer ([…], 10 mM Tris/MOPS, 40 mM EGTA/Tris 4, […]). As a substrate of complexes II, III and IV, 5 mM succinate was added. The main read out is the "respiratory control ratio (RCR)" that can be calculated by the ratio of "state 3" and "state 4" respiration, which is equivalent to the ratio of ADP-dependent respiration and ADP-independent respiration. […] If the ADP was consumed completely, the slope of the oxygen consumption ("state 4" respiration) looked similar to the "state 2" slope.

[4] = test system: hepatic IRI
Text: The mice were imported by embryonic transfer into the animal facility of the Jena University Hospital and conducted under pathogen free conditions. The original mixed Sv129/C57 background was backcrossed to a 99 % C57BL/6 background. In all experiments male WT and Cse^-/- mice between 10 and 12 weeks were used for a standardised hepatic IRI model. […] Body temperature was maintained with a heating plate. During the actual experiment, ischemia was induced in the left lateral lobe of the liver by clamping the hepatic artery and the portal vein using a microaneurysm clamp (FST, Heidelberg, Germany). This procedure results in a segmental (30 %) ischemia. After 1 h, the clamp was removed to initiate the reperfusion. The reperfusion time points were set to 1 h or 24 h. Subsequently, the mice were sacrificed and both, plasma and organs, were harvested. During deep isoflurane (Forene®, Abb-Vie Deutschland GmbH & Co. KG, Ludwigshafen, Germany) anaesthesia, the blood was collected and plasma was generated. Next, the liver, the kidney and the spleen were removed and washed with saline.
The analysis of the ultra-structure of the tissue was performed by TEM. Therefore, the liver had to be perfused with 4 ml/min for 2 min with warm, oxygenated KBH to wash out all blood as described in section 3.4. […]

[5] = test system: mitochondria; details: low dose STS, 1 h after reperfusion (Fig. 5a)
Protocol: The analysis of the ultra-structure of the tissue was performed by TEM. Therefore, the liver had to be perfused with 4 ml/min for 2 min with warm, oxygenated KBH to wash out all blood as described in section 3.4. Afterward, the liver was perfused with fixation buffer pH 7.4 (4 % paraformaldehyde, 2.5 % glutaraldehyde, 0.1 M sodium cacodylate) for 4 min. After the fixation, the liver was removed and cut into 1-2 mm slices. These slides were incubated overnight in the fixation buffer at 4 °C. Subsequently, the slices were cut into cubes and stored in 0.1 M cacodylate buffer.
The samples were embedded in Araldite resin (Piano, Wetzlar, Germany) according to manufacturer's instruction. Semithin sections (1 µm) were stained with Richardson's methylene blue to get a general overview. The areas of the samples were then further trimmed down to 500 x 500 µm. Ultra-thin sections of 80 nm thickness were cut using the ultramicrotome Ultracut E (Reichert-Jung, Wien, Austria). Finally, sections were investigated using a transmission electron microscope EM900 (Zeiss).

[6] = test system: TOM20; details: for TOM20 signal: immunofluorescence, without STS 258, healthy control 672
Protocol: In addition to autophagy marker proteins, the translocase of the mitochondrial outer membrane 20 (TOM20) was analysed. […] To detect a possible specific loss of TOM20 in liver cells, immunofluorescence staining was carried out.
Finally, the liver tissue samples were stored for histological and molecular biological analysis.
The total protein content was isolated from the frozen tissue samples by an protein isolation buffer pH 7.5 (10 mM Tris, 250 mM saccharose, 1 mM EDTA, 1 % phosphatase-inhibitor, 1 % protease-inhibitor). To keep organelles and membranes as intact as possible, a tightly fitting Dounce homogenizer (Kimble Chase, Mexico) was used resulting in a mild and mechanical homogenisation. Afterward, the homogenate was centrifuged at 900 x rcf for 10 min at 4 °C. The protein content in the post nucleus supernatant was determined using the BCA assay (Sigma Aldrich, Hamburg, Germany). In addition, the samples were incubated for 15 min at room temperature with Laemmli sample buffer to denature the protein structure.
Afterward, the proteins were separated by size using 4-12 % SDS-gels (NuPAGE® Bis-Tris Gel, Invitrogen, Germany) in a SDS-Gel electrophoresis (XCellSureLock® Mini Gel chamber and NuPAGE®MOPS SDS Running Buffer, Invitrogen, Germany). Subsequently, the proteins were transferred to a PVDF-membrane (Roth, Germany). A blocking solution containing tris-buffered saline and tween 20 (TBST) pH 7.5 (10 mM Tris, 100 mM NaCl, 0.1 % Tween 20) 5 % BSA or skim milk (Sigma-Aldrich, Germany) was used to block unspecific bindings. The membrane was incubated with this solution for 1 h at room temperature. Next, the membrane was incubated with a rabbit polyclonal LC3B antibody (Cell Signaling Technology®, Danvers, USA 1:500 dilution), a rabbit polyclonal TOM20 antibody (Abcam®, Cambridge, UK 1:500 dilution) or a rabbit polyclonal β-actin antibody (Abcam®, Cambridge, UK 1:2,000 dilution) overnight at 4 °C. All primary antibodies were diluted in the blocking solution depending on the manufacture's protocol. After washing the membrane with TBST buffer 3 times, a horseradish peroxidase (HRP)-conjugated secondary antibody (1:5,000) was added for 1 h at room temperature. In the last step, the membrane was washed again with TBST buffer 3 times.
Detection of the secondary antibody by chemiluminescence was performed using HRP substrate (Immobilon Western HRP Substrat, Merck Millipore, USA) by the LAS3000 (GE Healthcare, Frankfurt, Germany). Finally, the target proteins were quantified by densitometric analysis in the software ImageJ (National Institutes of Health, USA). B-actin served as loading control to calculate the differences in the protein expression between the groups.
Immunofluorescence staining was used to investigate the TOM20 localisation. […]

| Substance | amount of total glutathione [1] | mitochondrial granularity ([2]; WT and Cse-/- mice, end of reperfusion (120 min)) | mitochondrial granularity ([2]; WT mice, beginning of reperfusion (60 min)) | RCR at higher concentrations [3] | mitochondrial respiratory activity [3] | mitochondrial ultrastructure by transmission electron microscopy ([4]; Cse-/- mice after IRI with STS treatment (Fig. 8b)) | mitochondrial ultrastructure by transmission electron microscopy ([4]; WT mice after IRI with STS treatment (Fig. 8b)) | mitochondrial structure by transmission electron microscopy [5] | TOM20 levels by Western blot ([6]; healthy controls vs IRI treated livers vs STS treated groups (Fig. 6a)) | TOM20 signal ([6]; high dose 0.45 g STS/kg BW) [positive cells per mm^2] | TOM20 signal ([6]; low dose 0.0045 g STS/kg BW) [positive cells per mm^2] | TOM20 signal ([6]; medium dose 0.045 g STS/kg BW) [positive cells per mm^2] | decline of RCR induced by tert-BOOH oxidative stress ([3]; 200 µM tert-BOOH + 1 µM NaHS (Fig. 3b)) | mitochondrial respiratory activity ([3]; at low doses (Fig. 3a)) | concentration that induced inhibitory effects on respiratory control ratio (RCR) ([3]; isolated mitochondria, 0-100 µM NaHS, no oxidative stress (Fig. 3a)) [µM] |
| --- | --- | --- | --- | --- | --- | --- | --- | --- | --- | --- | --- | --- | --- | --- | --- |
| sodium thiosulfate [STS] | significantly decreased by IRI independently on STS treatment | This effect was also detected | pronounced recovery of the mitochondrial granularity | decreased RCR | stimulated mitochondrial respiratory activity | electron-dense accumulation | normal mitochondrial architecture | retained their normal structure | no significant differences | 194 | 305 | 422 | – | – | – |
| sodium hydrogen sulphide [NaHS] | – | – | – | – | – | – | – | – | – | – | – | – | compensated the decline of RCR | stimulated mitochondrial respiratory activity | 100 |
